Assay results published in patent US8628753B2, “Reduced dye probes for the detection of radical oxygen species” (Emory University, priority 2008, dated 2014).

Experiments:
[1] = Sensitivity of DHE and D-DHE to Fenton's reagent in PBS; settings: 50 μM probe in PBS; FIG. 4
Procedure: The sensitivity of deuterohydroethydium (D-DHE or DDE) was evaluated in the same manner. A 50 μM solution of DHE or D-DHE (DDE) in PBS buffer was treated with Fenton's reagent (using 1-60 nM H2O2 with Fe^2+) and the fluorescence of the oxidized product was measured.

[2] = physchem; settings: for half-life: buffer, pH 7.4
Procedure: A solution of hydrocyanine in PBS buffer (pH 7.4) was placed in an Eppendorf tube and placed in a 37° C. water bath. Stability was measured by monitoring the formation of the oxidation product using fluorescence spectroscopy over a 24 hour period. The excitation and emission wavelengths for DHE were 515 and 590 nm.
The stability of deuterocyanines was evaluated in the same manner.

[3] = system: rat aortic smooth muscle (RASM) cells; assay: Detection of ROS in RASM cells during Ang II mediated cell signaling; assay type: cell-based; settings: for background fluorescence / detection of intracellular ROS after Ang II stimulation: 10 minutes; for detection of intracellular ROS after Ang II stimulation: fluorescent microscopy
Procedure: The ability of hydrocyanines to detect ROS in rat aortic muscle (RASM) cells during angiotensin (Ang) II mediated cell signaling was evaluated using fluorescence spectroscopy. Ang II-mediated ROS production in aortic smooth muscle cells has been implicated in the development of atherosclerosis and hypertension.
[…] […] It is evident from fluorescence measurements that hydro-Cy3 is sensitive enough to detect even the ROS production by normal cells, causing relatively higher background fluorescence. On the other hand, because of the tuned reaction rate, deutero-Cy3 can only detect the overproduction of ROS during Ang-II mediated ROS over-production.
The ability of D-DHE to detect ROS in rat aortic muscle (RASM) cells during angiotensin (Ang) II mediated cell signaling was evaluated using fluorescence spectroscopy. A comparative cell-culture study between DHE and D-DHE was conducted to evaluate the ability of DHE and D-DHE to detect ROS production in rat aortic smooth muscle (RASM) cells, during angiotensin (Ang) II mediated cell signaling.
[…] […] Stimulation of RASMs with Ang II was not detected with DHE due to the high level background fluorescence.

[4] = Fluorescence of hydrocyanines before and after reaction with superoxide (KO2); assay type: physicochemical; settings: for λem: emission wavelength of the corresponding oxidized product; for λex: excitation wavelength of the corresponding oxidized product; for Fold Increase in Intensity: oxidized versus reduced dye, 7.5 μM in 1 mL methanol, oxidized with 20 μL DMSO containing 20 mM KO2
Procedure: Superoxide (O2^−) was created by the enzymatic reaction of XA/XO (10 lm/10 mU) at 25° C. for 5 min (XA=[…]). XA/XO (10 lm/10 mU) was added to buffered solutions of Hydro-Cy3 ([…]) maintained in a 37° C. water bath. The fluorescence emission of each reaction mixture was measured at 5-min intervals against a reagent blank using a fluorescence spectrometer. In some cases solid KO2 (1 mg) or KO2 dissolved in DMSO was added to a Hydro-IR-786 solution in methanol or DMSO and the emission spectra was recorded. Alternatively, hydro-IR-786 (2 mg) was dissolved in 1 mL of ethanol and 50 μL of […] KO2 solution (7 mg KO2 was dissolved in 10 mL dimethylsulfoxide) was added and stirred for 15 min before recording the emission spectra.

[5] = system: live, explanted mouse aortas; assay: Detection of ROS in live, explanted mouse aortas after LPS stimulation; parameters: species or system C57B1/6 mice; settings: for detection of ROS in tissue explants (LPS versus PBS): confocal fluorescent imaging
Procedure: The ability of hydrocyanines to detect ROS from live, explanted mouse aortas, after lipopolysaccharide endotoxin (LPS) stimulation to produce ROS, was evaluated. The detection of ROS in live tissue can provide information about ROS production in a physiological environment that closely resembles in vivo conditions. C57B1/6 mice were treated with either 16 mg/kg lipopolysaccharide endotoxin (LPS) or PBS for 16 hours and then euthanized. The aortas of the mice were isolated and incubated with either Hydro-Cy3 or Hydro-Cy3+TEMPOL for 15 minutes. Sections of the aorta were made, fixed with 10% formalin, and mounted en face.
For example, the fluorescence intensity of the LPS-treated slide was 183.2 RFU/S compared to 46.9 RFU/S in the PBS-treated mice. Application of TEMPOL (small molecule cell-permeable superoxide dismutase mimetic1, which attenuates superoxide anion and peroxynitrite-induced inflammation) to mouse aortas, treated with LPS, reduced the fluorescence to control levels.

[6] = system: carotid arteries; assay: DHE staining of carotid artery sections after carotid ligation; parameters: species or system Mice; settings: 10 μmol/L in PBS, 30 minutes at 37° C.; 14 days after ligation
Procedure: Mice were anesthetized with ketamine/xylazine and their left carotid arteries were exposed and tied with a 6-0 silk suture 1 cm below the bifurcation as described in the literature. The control was sham operated mice. The mice were sacrificed 14 days after ligation and their carotid arteries were isolated and frozen, enzymatically-intact, and 30 μm-thick sections of sham operated and injured carotid arteries were made. The frozen sections were incuvated with DHE (10 μmol/L) in PBS for 30 minutes at 37° C. in a humidified chamber protected form light. DHE is oxidized on reaction with superoxide to ethidium bromide, which binds to DNA in the nucleus and fluoresces red. The DHE stained slides were imaged on a confocal microscope. The ethidium bromide fluorescence was detected using a 543 nm He—Ne laser for excitation and a 560 nm long pass filter for emission. The autofluorescence of the elastic laminae was detected using a 488 nm Ar laser for excitation combined with a 500-550 nm band pass filter for emission.

[7] = Sensitivity to hydroxide radical generated from H2O2 and Fe2+
Procedure: Hydroxide radicals were generated in situ by reacting hydrogen peroxide with Fe^2+. Various quantities of hydrogen peroxide (H2O2) stock solutions were added to a solution of hydrocyanine in methanol to generate hydrogen peroxide concentrations from about 2 to about 30 nM. Aqueous Fe^2+(1 μM) was added to the reduced dye/H2O2 solution to generate a 200 nM concentration. The resulting solution was kept at ambient temperature for 5 minutes and the fluorescence intensity was measured (λex/λem) against a reagent blank (control solution containing only reagent) simultaneously.
This measurement was carried out using 100 μM of Hydro-ICG at 25° C. The hydroxide radical was generated using the procedure described above.

[8] = system: RASM cells; assay: Trypan blue cell viability assay; assay type: cell-based, rat; settings: experimental conditions of RASM assay and higher concentrations (1 mM)
[9] = Specificity to various reactive oxygen species; settings: 50 μM probe in PBS with 1% methanol; equimolar ROS; 5 minutes at 25° C.; FIG. 5
Procedure: A 50 μm Hydro-Cy7 solution was prepared in phosphate buffered saline (PBS) containing 1% methanol. Various reactive oxygen species were added to the 50 μm Hydro-Cy7 solution, at an equimolar ratio to Hydro-Cy7, and the fluorescence intensity was recorded after incubating 5 minutes at 25° C. Superoxide (O2^−) was added as solid KO2. Stock solutions of hydrogen peroxide, t-butyl hydrogen peroxide (TBHP), hypochlorite, 3-morpholinosydnonimine (SIN-1), glutathione (GSH), and 1,4-hydroquinone were prepared and added to the Hydro-Cy7 solution to generate a final concentration of 50 μM. 3-(aminopropyl)-1-hydroxy-3-isopropyl-2-oxo-1-triazene (NOC-5, 1 mM) was prepared as a 10 mM sodium hydroxide solution and added to the Hydro-Cy7 solution to generate a final concentration of 50 μM. The hydroxide and butoxy radicals were generated in situ by reacting hydrogen peroxide and t-butylperoxide with Fe^2+. A 50 μM Hydro-Cy7 solution, in PBS, containing 500 μM Fe^2+ was prepared and either hydrogen peroxide or t-butyl hydrogen peroxide was added to this solution to generate a final concentration of 50 μM.

[10] = system: ROS production generated by activated macrophages and neutrophils; assay: In vivo imaging of ROS in LPS model of acute inflammation; parameters: species or system C57B1/6 mice; settings: 5 nanomoles i.p., 6 hours after LPS (1 mg i.p.); abdominal area; FIG. 7
Procedure: The ability of hydrocyanines to image ROS production, in vivo, generated by activated macrophages and neutrophils, in an LPS model of acute inflammation was evaluated. Nine C57B1/6 mice were divided into three groups: Group I was given an intraperitoneal (i.p.) injection of LPS (1 mg in 400 μL saline); Group II was given saline (400 μL); and Group III was untreated. After 6 hours, the mice were anaesthetized, their abdominal fur was removed, and the LPS and saline treated mice were injected i.p. with Hydro-Cy7 (5 nanomoles in 50 μL methanol). The mice were images as triplets, one from each group, using a Kodak FX in vivo images with a 700 nm excitation laser and a 790 nm emission filter. […] The mean fluorescent intensity, from the abdominal area, from the three sets of mice was also quantified using Image-Pro software. LPS-treated mice had approximately two-fold higher fluorescence intensity than the saline group.

SMILES	background fluorescence ([3]; probe 10 μM)	detection of intracellular ROS after Ang II stimulation ([3]; probe 10 μM)	λem [4] [nm]	λex [4] [nm]	half-life [2] [h]	detection of ROS (fluorescence) in cells incubated with Ang II ([3]; probe 100 μM)	detection of ROS in tissue explants (LPS versus PBS) [5]	Fold Increase in Intensity [4] [fold]	other results
[2H]C1(c2ccccc2)c2cc(N)ccc2-c2ccc(N)cc2N1CC [D-DHE, deuterohydroethydium]	very low levels of background fluorescence	significant increase in fluorescence							concentration range in which ROS is accurately measured [1]: 5 to 60 nM; increase in stability versus DHE [2]: 4-6 fold; change in fluorescence on application of TEMPOL ([3]; cells treated with probe (10 μM) and Ang II): dramatic decrease in fluorescence; detection of intracellular ROS after Ang II stimulation ([3]; probe 10 μM, listed as DDE): significantly better than DHE
CCN1c2cc(N)ccc2-c2ccc(N)cc2C1c1ccccc1 (centres unmarked) [DHE, dihydroethydium, reference compound]	large amount of background fluorescence	not detected	590	515	0.5	failed to detect ROS	failed to detect ROS		ROS detection in ligated versus sham carotid artery sections [6]: increased red fluorescence compared to the sham mice
CCN1/C(=C/C=C/C2N(CC)c3ccccc3C2(C)C)C(C)(C)c2ccccc21 (centres unmarked) [Hydro-Cy3]			560	535	~72	intense intracellular fluorescence	significantly higher fluorescence intensity	118	concentration range of linear concentration curve against hydroxide radical [7]: 5 to 50 nM; detected concentration of hydroxide radical [7]: 5 nM; change in fluorescence on application of TEMPOL ([3]; cells treated with probe (100 μM) and Ang II): dramatic decrease in fluorescence; background fluorescence ([3]; probe 50 μM): relatively higher amounts of background fluorescence; fluorescence of cells incubated with probe alone ([3]; probe 100 μM, no Ang II): significantly less fluorescence; cellular toxicity [8]: no cellular toxicity; integrated total fluorescence intensity ([5]; aortas of LPS-treated mice (16 mg/kg, 16 hours), probe 15 minutes): 183.2 RFU/S; integrated total fluorescence intensity ([5]; aortas of LPS-treated mice, probe + TEMPOL): 34.9 RFU/S; integrated total fluorescence intensity ([5]; aortas of PBS-treated mice): 46.9 RFU/S
CCN1/C(=C/C=C/C=C/C=C/C2N(CC)c3ccccc3C2(C)C)C(C)(C)c2ccccc21 (centres unmarked) [Hydro-Cy7]			760	735	~72			104	ROS specificity [9]: specificity for superoxide and hydroxyl radical; fluorescence intensity of LPS-treated mice relative to saline group [10]: approximately two-fold
CN1/C(=C/C=C/C=C/C2N(C)c3ccc4ccccc4c3C2(C)C)C(C)(C)c2c1ccc1ccccc21 (centres unmarked) [Hydro-IR-676]			693	675				100	
